Active and inactive are the calls of the source. No cut-off for these calls is given here.
Columns and labels:
[1] = Metabolic stability in rat liver microsomes assessed as compound remaining at 0.5 uM after 10 mins; type: ADME, Microsome; details: read-out: Stability
[2] = Metabolic stability in mouse liver microsomes assessed as compound remaining at 0.5 uM after 10 mins; type: ADME, Microsome; details: read-out: Stability
[3] = Metabolic stability in human liver microsomes assessed as compound remaining at 0.5 uM after 10 mins; type: ADME, Microsome; details: read-out: Stability
[4] = biological target: Glycogen synthase kinase-3 beta (Homo sapiens, UniProt P49841); experiment: Inhibition of GSK-3beta (unknown origin) incubated for 1 hr by HTRF assay
Mus musculus = experiment: Anti-alzheimer activity in triple-transgenic mouse model at 30 mg/kg, po; type: functional, organism-based

Chain of Glycogen synthase kinase-3 beta (P49841 whole entry): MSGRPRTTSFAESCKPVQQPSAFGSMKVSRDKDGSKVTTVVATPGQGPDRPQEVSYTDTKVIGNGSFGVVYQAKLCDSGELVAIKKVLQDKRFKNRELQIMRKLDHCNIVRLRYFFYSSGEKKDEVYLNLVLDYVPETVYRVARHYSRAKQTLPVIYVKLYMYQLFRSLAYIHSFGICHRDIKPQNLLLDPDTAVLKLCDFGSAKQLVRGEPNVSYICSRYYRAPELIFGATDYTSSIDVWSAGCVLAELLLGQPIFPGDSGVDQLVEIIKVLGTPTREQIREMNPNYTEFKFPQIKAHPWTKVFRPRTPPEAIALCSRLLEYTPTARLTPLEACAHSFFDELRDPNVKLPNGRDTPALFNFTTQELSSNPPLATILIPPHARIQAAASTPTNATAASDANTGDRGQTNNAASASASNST

Structure (SMILES) | remaining at 10 min, 0.5 µM [1] [%] | remaining at 10 min, 0.5 µM [2] [%] | remaining at 10 min, 0.5 µM [3] [%] | IC50 [4] [nM] | Activity (Mus musculus)
O=C(Nc1cnccc1C(O)C(F)(F)F)c1ccnc(NC(=O)C2CC2)c1 (centres undefined) | 82 | 35 | 86 | 3.6 | –
C[C@@H]1CN(c2ccncc2NC(=O)c2ccnc(NC(=O)C3CC3)c2)C[C@H](C)O1 | 26 | 4 | 34 | – | –
CC(F)C(=O)Nc1cc(C(=O)Nc2cnccc2-c2ccccc2)ccn1 (centres undefined) | – | – | – | 49 | –
C[C@H]1COCCN1c1ccncc1NC(=O)c1ccnc(NC(=O)C2CC2)c1 | 3 | 0.2 | 9 | – | –
CC(O)c1ccncc1NC(=O)c1ccnc(NC(=O)C2CC2)c1 (centres undefined) | 100 | 77 | 100 | – | –
O=C(Nc1cncc(-c2cccc(F)c2F)c1)c1ccnc(NC(=O)C2CC2)c1 | – | – | – | 2.6 | –
C=C(C)c1ccncc1NC(=O)c1ccnc(NC(=O)C2CC2)c1 | 57 | 3 | 88 | – | –
CC1(C)CN(c2ccncc2NC(=O)c2ccnc(NC(=O)C3CC3)c2)CCO1 | 16 | 0.4 | 35 | – | –
O=C(Nc1cnccc1C(=O)C(F)(F)F)c1ccnc(NC(=O)C2CC2)c1 | 79 | 57 | 85 | – | –
O=C(Nc1cnccc1N1CCOCC1)c1ccnc(NC(=O)C2CC2)c1 | 63 | 2 | 84 | – | –
O=C(Nc1cnccc1-c1ccccc1)c1ccnc(NC(=O)C2CCCC2)c1 | – | – | – | 2.1 | –
C[C@H]1CN(c2ccncc2NC(=O)c2ccnc(NC(=O)C3CC3)c2)CCO1 | 40 | 1 | 66 | – | –
O=C(Nc1cnccc1-c1ccccc1)c1ccnc(NC(=O)C2CCC2)c1 | – | – | – | 5.7 | –
O=C(Nc1cnccc1-c1ccc(Cl)cc1)c1ccnc(NC(=O)[C@H]2C[C@H](F)C2)c1 | – | – | – | 1.7 | –
O=C(Nc1cncc(-c2cc(F)ccc2F)c1)c1ccnc(NC(=O)C2CC2)c1 | – | – | – | 3.7 | –
C[C@@H]1CN(c2ccncc2NC(=O)c2ccnc(NC(=O)C3CC3)c2)CCO1 | 36 | 3 | 56 | – | –
O=C(Nc1cnccc1C(F)(F)F)c1ccnc(NC(=O)C2CC2)c1 | 100 | 86 | 99 | – | –
O=C(Nc1cnccc1C1CCCCC1)c1ccnc(NC(=O)C2CC2)c1 | 0.4 | 0.6 | 1 | – | –

Structure (SMILES) | remaining at 10 min, 0.5 µM [1] [%] | remaining at 10 min, 0.5 µM [2] [%] | remaining at 10 min, 0.5 µM [3] [%] | IC50 [4] [nM] | Activity (Mus musculus)
O=C(Nc1cnccc1N1CCC(F)(F)CC1)c1ccnc(NC(=O)[C@H]2C[C@@H](Cl)C2)c1 | – | – | – | 0.16 | –
O=C(Nc1cnccc1C1CCCC1)c1ccnc(NC(=O)C2CC2)c1 | 1 | 0.5 | 7 | – | –
CC(C)C(=O)Nc1cc(C(=O)Nc2cnccc2OCCC(C)(C)O)ccn1 | – | – | – | 2.8 | –
CC(C)C(=O)Nc1cc(C(=O)Nc2cnccc2OCC(C)(F)F)ccn1 | – | – | – | 1.4 | –
CC1(C)COCCN1c1ccncc1NC(=O)c1ccnc(NC(=O)C2CC2)c1 | 0.4 | 0.4 | 0.9 | – | –
C[C@@H]1COCCN1c1ccncc1NC(=O)c1ccnc(NC(=O)C2CC2)c1 | 1 | 0.2 | 4 | – | –
O=C(Nc1cncc(-c2cccc(F)c2F)c1)c1ccnc(NC(=O)C2CCC(F)(F)C2)c1 (centres undefined) | – | – | – | 2.5 | –
CC(C)(O)c1ccncc1NC(=O)c1ccnc(NC(=O)C2CC2)c1 | 100 | 27 | 87 | 0.1 | –
O=C(Nc1cncc(-c2ccccc2F)c1)c1ccnc(NC(=O)C2CC2)c1 | – | 90 | 88 | 3 | inactive
O=C(Nc1cnccc1-c1ccc(Cl)cc1)c1ccnc(NC(=O)[C@H]2C[C@@H](F)C2)c1 | – | – | – | 6.9 | –
O=C(Nc1cnccc1N1CCC(F)(F)CC1)c1ccnc(NC(=O)C2CC2)c1 | 6 | 0.2 | 25 | 0.19 | –
Cc1ccncc1NC(=O)c1ccnc(NC(=O)C2CC2)c1 | 97 | 82 | 93 | – | –
CC(C)c1ccncc1NC(=O)c1ccnc(NC(=O)C2CC2)c1 | 78 | 14 | 87 | – | –
O=C(Nc1cncc(-c2ccccc2)c1)c1ccnc(NC(=O)C2CC2)c1 | – | – | – | 9 | –
O=C(Nc1cnccc1C1CCC1)c1ccnc(NC(=O)C2CC2)c1 | 43 | 1 | 72 | – | –
O=C(Nc1cnccc1-c1ccccc1)c1ccnc(NC(=O)C2CCOCC2)c1 | – | – | – | 4.5 | –
O=C(Nc1cnccc1N1CCC(F)(F)CC1)c1ccnc(NC(=O)[C@H]2C[C@H](Cl)C2)c1 | – | – | – | 0.37 | –
O=C(Nc1cnccc1N1CCCCC1)c1ccnc(NC(=O)C2CC2)c1 | 6 | 1 | 17 | – | –
